The record followed here is patent publication US7358248B2, “Substituted amino carboxylic acids” (The Institute for Pharmaceutical Discovery LLC, priority 2003, dated 2008).

As usually defined, the melting point is the temperature of the solid-liquid transition.

Structures are written as SMILES.

As for `CC(C)(C)OC(=O)N[C@@H](CSCc1ccc(-c2ccc(-c3ccc4c(c3)OCO4)cc2)cc1)C(=O)O` (stereo in doubt) [Example 101, 3-(4′-Benzo[1,3]dioxol-5-yl-biphenyl-4-ylmethylsulfanyl)-2-tert-butoxycarbonylamino-propionic acid], the melting point lay within 178 to 180 °C.
Under `CC(C)(C)OC(=O)N[C@@H](C[S+]([O-])Cc1ccc(-c2ccc(-n3ccc4ccccc43)cc2)cc1)C(=O)O` (stereo partly drawn) [Example 7, (2R)-tert-Butoxycarbonylamino-3-(4′-indol-1-ylbiphen-4-ylmethylsulfinyl)-propionic acid] stands 169 to 170 °C.
In turn, `O=C(Cc1cccc([N+](=O)[O-])c1)N[C@@H](CSCc1ccc(-c2ccc(-n3ccc4ccccc43)cc2)cc1)C(=O)O` [Example 10, (2R)-3-(4′-Indol-1-ylbiphen-4-ylmethylsulfanyl)-2-[2-(3-nitrophenyl)acetylamino]-propionic acid] yielded a melting point of 94 °C.
Under `COC(=O)N[C@@H](CSCc1ccc(-c2ccc(-n3ccc4ccccc43)cc2)cc1)C(=O)O` [Example 12, (2R)-3-(4′-Indol-1-ylbiphen-4-ylmethylsulfanyl)-2-methoxycarbonylamino-propionic acid] stands 81 to 82 °C; under `CC(C)COC(=O)N[C@@H](CSCc1ccc(-c2ccc(-n3ccc4ccccc43)cc2)cc1)C(=O)O` [Example 13, (2R)-3-(4′-Indol-1-ylbiphen-4-ylmethylsulfanyl)-2-isobutoxycarbonylamino-propionic acid], 85 to 86 °C.
With `O=C(O)[C@H](CSCc1ccc(-c2ccc(-n3ccc4ccccc43)cc2)cc1)NC(=O)N1CCOCC1` [Example 14, (2R)-3-(4′-Indol-1-ylbiphen-4-ylmethylsulfanyl)-2-[(morpholine-4-carbonyl)-amino]-propionic acid], the melting point is 195 °C (dec.).
As for `O=C(Cc1cccc([N+](=O)[O-])c1)N[C@@H](C[S+]([O-])Cc1ccc(-c2ccc(-n3ccc4ccccc43)cc2)cc1)C(=O)O` (stereo partly drawn) [Example 17, (2R)-3-(4′-Indol-1-ylbiphen-4-ylmethylsulfinyl)-2-[2-(3-nitrophenyl)acetylamino]-propionic acid], the melting point lay within 197 to 198 °C.
In turn, `CC(C)(C)OC(=O)N[C@@H](CSCc1ccc(-c2ccc(-c3c(Cc4ccccc4)oc4ccccc34)cc2)cc1)C(=O)O` [Example 66, (2R)-3-[4′-(2-benzylbenzofuran-3-yl)biphen-4-ylmethylsulfanyl]-2-tert-butoxy-carbonylamino-propionic acid] yielded a melting point of 89 to 90 °C.
`CC(C)(C)OC(=O)N[C@@H](C[S+]([O-])Cc1ccc(-c2ccc(-c3c(Cc4ccccc4)oc4ccccc34)cc2)cc1)C(=O)O` (stereo partly drawn) [Example 67, (2R,4RS)-3-[4′-(2-benzylbenzofuran-3-yl)biphen-4-ylmethylsulfinyl]-2-tert-butoxycarbonylaminopropionic acid] registered a melting point of 195 to 196 °C.
The figure for `CC(C)(C)OC(=O)N[C@@H](CS(=O)(=O)Cc1ccc(-c2ccc(-c3c(Cc4ccccc4)oc4ccccc34)cc2)cc1)C(=O)O` [Example 68, (2R)-3-[4′-(2-benzylbenzofuran-3-yl)biphen-4-ylmethylsulfonyl]-2-tert-butoxycarbonylaminopropionic acid] is 202 to 203 °C; for `O=C(N[C@@H](CSCc1ccc(-c2ccc(-c3c(Cc4ccccc4)oc4ccccc34)cc2)cc1)C(=O)O)c1ccccc1` [Example 70, (2R)-2-Benzoylamino-3-[4′-(2-benzylbenzofuran-3-yl)biphen-4-ylmethylsulfanyl]-propionic acid] it is 138 to 139 °C.
The figure for `O=C(Cc1ccccc1)N[C@@H](CSCc1ccc(-c2ccc(-c3c(Cc4ccccc4)oc4ccccc34)cc2)cc1)C(=O)O` [Example 71, (2R)-2-Phenylacetylamino-3-[4′-(2-benzylbenzofuran-3-yl)biphen-4-ylmethyl-sulfanyl]-propionic acid] is 77 to 78 °C.
Under `O=C(N[C@@H](CSCc1ccc(-c2ccc(-c3c(Cc4ccccc4)oc4ccccc34)cc2)cc1)C(=O)O)c1ccc2nc[nH]c2c1` [Example 73] stands 149 to 150 °C.
Regarding `O=C(Cc1ccc(F)cc1)N[C@@H](CSCc1ccc(-c2ccc(-c3c(Cc4ccccc4)oc4ccccc34)cc2)cc1)C(=O)O` [Example 74, (2R)-2-(4-Fluorophenylacetylamino)-3-[4′-(2-benzylbenzofuran-3-yl)biphen-4-ylmethylsulfanyl]-propionic acid], the melting point lay within 82 to 84 °C.
`O=C(Cc1cccc([N+](=O)[O-])c1)N[C@@H](CSCc1ccc(-c2ccc(-c3c(Cc4ccccc4)oc4ccccc34)cc2)cc1)C(=O)O` [Example 75, (2R)-2-(3-Nitrophenylacetylamino)-3-[4′-(2-benzylbenzofuran-3-yl)biphen-4-ylmethylsulfanyl]-propionic acid] returned a melting point of 108 to 109 °C.
The molecule `O=C(Cc1ccc([N+](=O)[O-])cc1)N[C@@H](CSCc1ccc(-c2ccc(-c3c(Cc4ccccc4)oc4ccccc34)cc2)cc1)C(=O)O` [Example 77, (2R)-2-(4-Nitrophenylacetylamino)-3-[4′-(2-benzylbenzofuran-3-yl)biphen-4-ylmethylsulfanyl]-propionic acid] came in with a melting point of 102 to 103 °C.
For the molecule `O=C(Cc1ccccc1[N+](=O)[O-])N[C@@H](CSCc1ccc(-c2ccc(-c3c(Cc4ccccc4)oc4ccccc34)cc2)cc1)C(=O)O` [Example 78, (2R)-2-(2-Nitrophenylacetylamino)-3-[4′-(2-benzylbenzofuran-3-yl)biphen-4-ylmethylsulfanyl]-propionic acid], the melting point is 189 to 191 °C.
As for `O=C(Cc1ccc(O)cc1)N[C@@H](CSCc1ccc(-c2ccc(-c3c(Cc4ccccc4)oc4ccccc34)cc2)cc1)C(=O)O` [Example 79, (2R)-2-(4-Hydroxyphenylacetylamino)-3-[4′-(2-benzylbenzofuran-3-yl)biphen-4-ylmethylsulfanyl]-propionic acid], the melting point lay within 148 to 149 °C.
As for `CC(=O)N[C@@H](CSCc1ccc(-c2ccc(-c3c(Cc4ccccc4)oc4ccccc34)cc2)cc1)C(=O)O` [Example 80, (2R)-2-Acetylamino-3-[4′-(2-benzylbenzofuran-3-yl)biphen-4-ylmethylsulfanyl]-propionic acid], the melting point lay within 131 to 132 °C.
`COc1ccc(CC(=O)N[C@@H](CSCc2ccc(-c3ccc(-c4c(Cc5ccccc5)oc5ccccc45)cc3)cc2)C(=O)O)cc1` [Example 81, (2R)-2-(4-Methoxyphenylacetylamino)-3-[4′-(2-benzylbenzofuran-3-yl)biphen-4-ylmethylsulfanyl]-propionic acid] gave a melting point of 59 to 60 °C.
`Nc1ccc(CC(=O)N[C@@H](CSCc2ccc(-c3ccc(-c4c(Cc5ccccc5)oc5ccccc45)cc3)cc2)C(=O)O)cc1` [Example 82, (2R)-2-(4-Aminophenylacetylamino)-3-[4′-(2-benzylbenzofuran-3-yl)biphen-4-ylmethylsulfanyl]-propionic acid] yielded a melting point of 170 to 172 °C.
The figure for `CC(C)(C)OC(=O)NC(CSCc1ccc(-c2nc(-c3ccccc3)cc(-c3ccccc3)n2)cc1)C(=O)O` (stereo not drawn) [Example 93, 2-tert-Butoxy carbonylamino-3-[4-(4,6-diphenylpyrimidin-2-yl)-benzylsulfanyl]propionic acid] is 250 °C (dec.).
Under `CC(=O)NC(CSCc1ccc(-c2nc(-c3ccccc3)cc(-c3ccccc3)n2)cc1)C(=O)O` (stereo not drawn) [Example 95, 2-Acetylamino-3-[4-(4,6-diphenyl-pyrimidin-2-yl)-benzylsulfanyl]-propionic acid] stands 223 to 226 °C; under `CC(C)(C)OC(=O)N[C@@H](CSCc1ccc(-c2ccc(-c3cccc4c3sc3ccccc34)cc2)cc1)C(=O)O` [Example 107, 2-tert-Butoxycarbonylamino-3-(4′-dibenzothiophen-4-yl-biphenyl-4-ylmethyl-sufanyl)-propionic acid], 108 to 110 °C.
